The target of experiment [1] is T1, CD73 (Homo sapiens, UniProt P21589).
T1 construct: purchased R&D system
T1 sequence (P21589 27-549): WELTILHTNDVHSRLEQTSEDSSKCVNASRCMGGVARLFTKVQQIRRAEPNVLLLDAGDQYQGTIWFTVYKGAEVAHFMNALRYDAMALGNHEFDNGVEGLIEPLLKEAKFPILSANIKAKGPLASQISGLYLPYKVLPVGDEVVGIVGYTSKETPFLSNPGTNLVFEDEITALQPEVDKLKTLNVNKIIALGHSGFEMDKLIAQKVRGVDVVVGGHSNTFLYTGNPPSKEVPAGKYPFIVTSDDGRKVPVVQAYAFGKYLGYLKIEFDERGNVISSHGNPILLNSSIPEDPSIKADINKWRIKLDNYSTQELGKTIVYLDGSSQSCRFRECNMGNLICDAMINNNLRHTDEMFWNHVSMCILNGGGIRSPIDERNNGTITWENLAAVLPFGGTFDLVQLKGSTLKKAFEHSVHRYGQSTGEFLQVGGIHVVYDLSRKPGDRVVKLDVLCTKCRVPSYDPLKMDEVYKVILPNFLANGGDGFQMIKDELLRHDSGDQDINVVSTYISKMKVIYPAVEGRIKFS
Put plainly: CD73 Biochemical IC50 Assay. The note with it: final AMP 15 uM, final CD73 0.3 nM, 25 mM Tris pH 7.4, 5 mM MgCl2, no phosphate. The protocol:
CD73 Biochemical IC50 Assay
Compound serial dilutions were pre-spotted into Thermo Nunc assay plate. 50 μL CD73 enzyme buffer (CD73 purchased from R&D system=0.6 nM, 25 mM Tris, pH 7.4, 5 mM MgCl2) was added into the assay plate and incubated for 15 mins. […] The samples were run using Rapid fire.

The target of experiment [2] is T1, CD73. It counts as biochemical. The note with it: 1 mM NaH2PO4 in enzyme buffer, final AMP 15 uM, final CD73 0.3 nM.
Experiment [3] has as its target T2, CD73 activity in MDA-MB-231-GFP cells (Homo sapiens, UniProt P21589).
T2 construct: endogenous in cells; host or cells: MDA-MB-231-GFP cells
T2 sequence (P21589 27-549): T1 sequence (P21589 27-549)
Put plainly: MDA-MB-231 Cell Based CD73 Activity Assay (DMEM). The following applies: 3000 cells per well, DMEM medium with 10% human plasma, overnight compound treatment, AMP 200 uM.

The target in experiment [4] is T2, CD73 activity in MDA-MB-231-GFP cells. As to the kind of experiment: MDA-MB-231 Cell Based CD73 Activity Assay. The following applies: 10000 cells per well, RPMI medium with 10% human plasma, overnight compound treatment, AMP 200 μM. The protocol: MDA-MB-231 Cell Based CD73 Activity Assay
MDA-MB-231-GFP cells were seeded in 384-well plates (Greiner 781946) at a density of 10000 cells per well in 50 μL of RPMI medium with 10% HP (human plasma). Cells were plated into assay plate with compounds pre-spotted, for an overnight compound treatment. 50 μL of 400 μM AMP (final concentration 200 μM) using a Bio-tek dispenser. Plates were incubated for 100 mins. […] The samples were run using Rapid fire.

Read-outs that look alike come from different tables or passages of the source.

Consider two molecules from patent publication US12110294B2, “CD73 compounds” (Gilead Sciences, Inc., priority 2020, dated 2024).

For orientation: IC50 means the midpoint of a concentration-inhibition curve. Read a high IC50 as weaker potency in that assay. Broadly, the EC50 is the concentration at which the effect is half-maximal. As to `O=c1[nH]cc(-c2cc([C@@H]3C[C@H]3c3ccc(F)c(F)c3)c3nccn3n2)c(=O)[nH]1` (racemic) [Example 33, 5-(8-((1S,2S)-2-(3,4-difluorophenyl)cyclopropyl)imidazo[1,2-b]pyridazin-6-yl)pyrimidine-2,4(1H,3H)-dione and 5-(8-((1R,2R)-2-(3,4-difluorophenyl)cyclopropyl)imidazo[1,2-b]pyridazin-6-yl)pyrimidine-2,4(1H,3H)-dione], the IC50 was determined as 9.38 nM at CD73 [1] and 0.93 nM at CD73 [2]. Moreover, the EC50 in experiment [3] amounted to 4.71 nM; in experiment [4], 2.04 nM.
In the case of `N#Cc1cccc([C@H]2C[C@@H]2c2cc(-c3c[nH]c(=O)[nH]c3=O)nn3ccnc23)c1` [Example 50, 3-((1S,2S)-2-(6-(2,4-dioxo-1,2,3,4-tetrahydropyrimidin-5-yl)imidazo[1,2-b]pyridazin-8-yl)cyclopropyl)benzonitrile], the IC50 was 10.7 nM at CD73 [1] and 1.37 nM against CD73 [2]. Further, the EC50 is 5.84 nM in experiment [3] and 2.45 nM in experiment [4].
